Data published in ChEMBL document CHEMBL1141717, “New functionalized 1,2,4-trioxepanes: synthesis and antimalarial activity against multi-drug resistant P. yoelii in mice” (2008).
Calls of active or inactive are those of the source. No cut-off for these calls is given here.

Key:
[1] = tested on: Plasmodium yoelii nigeriensis; experiment: Antimalarial activity as survivor numbers against multidrug-resistant Plasmodium yoelii nigeriensis infected Swiss mice (Mus musculus) at 96 mg/kg intramuscular dose at day 28; type: functional, organism-based; parameters: dose 96 mg/kg
[2] = tested on: Plasmodium yoelii nigeriensis; experiment: Antimalarial activity as reduced parasitaemia against multidrug-resistant Plasmodium yoelii nigeriensis infected Swiss mice (Mus musculus) at 96mg/kg peroral dose at day 4; type: functional; parameters: scale not given: the % may be the effect or the level left
[3] = tested on: Plasmodium yoelii nigeriensis; experiment: Antimalarial activity as reduced parasitaemia against multidrug-resistant Plasmodium yoelii nigeriensis infected Swiss mice (Mus musculus) at 96 mg/kg intramuscular dose at day 4; type: functional; parameters: scale not given: the % may be the effect or the level left
[4] = tested on: Plasmodium yoelii nigeriensis; experiment: Antimalarial activity as survivor numbers against multidrug-resistant Plasmodium yoelii nigeriensis infected Swiss mice (Mus musculus) at 96 mg/kg peroral dose at day 28; type: functional, organism-based; parameters: dose 96 mg/kg
[5] = tested on: Plasmodium yoelii nigeriensis; experiment: Antimalarial activity as reduced parasitaemia against multidrug-resistant Plasmodium yoelii nigeriensis infected Swiss mice (Mus musculus) at 48 mg/kg peroral dose at day 4; type: functional; parameters: scale not given: the % may be the effect or the level left; settings: route oral
[6] = tested on: Plasmodium yoelii nigeriensis; experiment: Antimalarial activity as survivor numbers against multidrug-resistant Plasmodium yoelii nigeriensis infected Swiss mice (Mus musculus) at 48 mg/kg peroral dose at day 28; type: functional, organism-based; parameters: dose 48 mg/kg
[7] = tested on: Plasmodium yoelii nigeriensis; experiment: Antimalarial activity as reduced parasitaemia against multidrug-resistant Plasmodium yoelii nigeriensis infected Swiss mice (Mus musculus) at 96 mg/kg peroral dose at day 28; type: functional; parameters: scale not given: the % may be the effect or the level left; settings: route oral

SMILES | Activity [1] | Activity [2] [%] | Activity [3] [%] | Activity [4] | Activity [5] [%] | Activity [6] | Activity [7] [%]
C=C(c1ccccc1)C1CCOC2(CCC(Nc3ccc(F)cc3)CC2)OO1 (mixture of isomers) | inactive | 63.18 | 50 | inactive | – | – | –
CCO[C@H]1O[C@@H]2O[C@@]3(C)CC[C@H]4[C@H](C)CC[C@@H]([C@H]1C)[C@@]24OO3 [ARTEMOTIL] | – | – | – | – | 100 | Active | –
C=C(c1ccc(Cl)cc1)C1CCOC2(CCC(=CC(=O)OCC)CC2)OO1 (mixture of isomers) | inactive | 85.87 | 41.11 | inactive | – | – | –
C=C(c1ccc(Cl)cc1)C1CCOC2(CCC(Nc3ccc(F)cc3)CC2)OO1 (mixture of isomers) | inactive | 41.51 | 58.37 | inactive | – | – | –
C=C(c1ccc(-c2ccccc2)cc1)C1CCOC2(CCC(=CC(=O)OCC)CC2)OO1 (mixture of isomers) | inactive | 95.18 | 35.32 | inactive | – | – | –
C=C(c1ccc(-c2ccccc2)cc1)C1CCOC2(CCC(Nc3ccc(C(F)(F)F)cc3)CC2)OO1 (mixture of isomers) | inactive | 68.3 | 75.84 | inactive | – | – | –
C=C(c1ccccc1)C1CCOC2(CCC(=CC(=O)OCC)CC2)OO1 (mixture of isomers) | inactive | 88.76 | 43.58 | inactive | – | – | –
C=C(c1ccc(-c2ccccc2)cc1)C1CCOC2(CCC(Nc3ccc(F)cc3)CC2)OO1 (mixture of isomers) | inactive | 98.08 | 57.69 | inactive | – | – | –
C=C(c1ccccc1)C1CCOC2(CCC(Nc3ccccc3)CC2)OO1 (mixture of isomers) | inactive | 78.58 | 75.47 | inactive | – | – | –
C=C(c1ccccc1)C1CCOC2(CCC(Nc3ccc(C(F)(F)F)cc3)CC2)OO1 (mixture of isomers) | inactive | 100 | 24.32 | – | – | – | 40
C=C(c1ccc(-c2ccccc2)cc1)C1CCOC2(CCC(Nc3ccccc3)CC2)OO1 (mixture of isomers) | inactive | 100 | 99.01 | – | – | – | 75
C=C(c1ccc(Cl)cc1)C1CCOC2(CCC(Nc3ccccc3)CC2)OO1 (mixture of isomers) | inactive | 98.49 | 32.07 | inactive | – | – | –
C=C(c1ccc(Cl)cc1)C1CCOC2(CCC(Nc3ccc(C(F)(F)F)cc3)CC2)OO1 (mixture of isomers) | inactive | 87.17 | 73.36 | inactive | – | – | –
